Read-outs that look alike come from different tables or passages of the source. One block for each compound: values may come before it.
Key:
[1] = molecular target: T1, GST/PTP-S31 fusion protein (S31D) (Homo sapiens, UniProt Q9UMZ3); experiment: PTP assay of GST/PTP-S31D fusion protein on glutathione-Sepharose beads, substrate pNP-P, effect of agents; format: biochemical; conditions: 25 mM pNP-P
T1 construct: p16 encodes a fusion protein of glutathione-S-transferase and PTP-S31D (starting with the first methionine); made in house; host or cells: E. coli DH5α and SURE
T1 sequence (Q9UMZ3 with tags, fused parts or gaps): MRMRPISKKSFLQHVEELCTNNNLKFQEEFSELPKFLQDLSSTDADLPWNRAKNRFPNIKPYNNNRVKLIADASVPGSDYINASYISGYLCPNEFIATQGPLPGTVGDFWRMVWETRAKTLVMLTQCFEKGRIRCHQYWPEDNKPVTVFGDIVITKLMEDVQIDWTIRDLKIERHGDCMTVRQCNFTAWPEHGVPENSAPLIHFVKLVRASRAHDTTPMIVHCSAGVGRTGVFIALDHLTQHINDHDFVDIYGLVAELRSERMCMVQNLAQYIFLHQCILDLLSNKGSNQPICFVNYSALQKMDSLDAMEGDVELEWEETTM
Method: The activity of PTP-S31D towards the substrate p-nitrophenyl phosphate (pNP-P) was measured essentially as described by Tonks et al., J. Biol. Chem. 263:6731-6737 (1988)). Increasing amounts of the glutathione-Sepharose beads with GST/PTP-S31D, GST/PTP-S31C and GST, respectively, from above were incubated with 25 mM pNP-P at room temperature in a reaction mixture containing 50 mM 2-(N-morpholino) ethane sulfonic acid (MES) pH 5.5, 10 mM dithiothreitol, and 5 mM ethylenediamine tetraacetic acid (EDTA). The reaction was stopped by addition of equal volumes of 0.4 M NaOH. After centrifugation, the supernatants were transferred to microtiter plates and the absorbance at 405 nm was read with a Dynatech MR5000 reader.
The activity of the GST/PTP-S31D fusion protein towards pNP-P is measured as described in Section 10, above. The substances to be analyzed for their ability to stimulate or inhibit phosphatase activity are added to the GST/PTP-S31D fusion protein 5 minutes prior to the addition of pNP-P. A similar procedure is used for PTP-S31D expressed in 293 cells, where the PTP-S31D/293 cell lysate is used directly.
The indicated concentrations of the agents are the final concentrations in the reaction mixture after addition of the substrate, pNP-P. The phosphatase assay mixture contained 50 mM 2-(N-Morpholino)ethane sulfonic acid (MES) pH 5.5, 10 mM dithiothreitol, 25 mM pNP-P and 2 μl of the GST/PTP-S31-Sepharose suspension. When testing orthovanadate, poly(Glu/Tyr) 4:1 and poly-L-lysine, 5 mM EDTA was included in the assay mixture. The reaction was carried out at room temperature and stopped after 30 minutes by addition of equal volumes of 0.4M NaOH. After centrifugation, the supernatants were transferred to microtiter plates and the absorbance at 405 nm read with a Dynatech MR5000 plate reader. For comparison, Table I includes published data of the activity of PTPB and LAR using Raytide as a substrate (Itoh et al (J. Biol. Chem. 267: 12356-12363 (1992)).

PTPβ = PTPβ (Homo sapiens, UniProt P23467); conditions: Raytide substrate, cited from earlier work
LAR = conditions: Raytide substrate, cited from earlier work
[2] = system: skeletal muscle or adipocytes; conditions: whole cells such as skeletal muscle or adipocytes; cited from earlier work
[3] = agent 1 mM final, MES pH 5.5, 30 min room temperature
[4] = agent 10 mM final, MES pH 5.5, 30 min room temperature
[5] = agent 0.1 mM final, MES pH 5.5, 30 min room temperature
[6] = agent 1 μg/ml final, MES pH 5.5, 5 mM EDTA, 30 min room temperature
[7] = agent 10 μg/ml final, MES pH 5.5, 5 mM EDTA, 30 min room temperature
[8] = agent 100 μg/ml final, MES pH 5.5, 5 mM EDTA, 30 min room temperature

PTPβ, sequence (P23467 1643-1997 limits assumed): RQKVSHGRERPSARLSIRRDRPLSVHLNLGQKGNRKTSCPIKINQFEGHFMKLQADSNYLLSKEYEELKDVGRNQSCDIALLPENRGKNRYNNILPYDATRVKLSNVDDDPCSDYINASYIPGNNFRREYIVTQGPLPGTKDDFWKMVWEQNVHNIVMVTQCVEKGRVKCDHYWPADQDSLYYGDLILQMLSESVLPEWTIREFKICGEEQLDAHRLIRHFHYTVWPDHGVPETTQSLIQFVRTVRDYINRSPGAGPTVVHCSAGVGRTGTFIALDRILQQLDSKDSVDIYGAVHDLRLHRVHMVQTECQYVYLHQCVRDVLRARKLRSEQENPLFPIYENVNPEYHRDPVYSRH

PTP Activity (% of control) S31D [1, 3]: 123 % of control | PTP Activity (% of control) S31D [1, 4]: 140 % of control
Compound: [Cl-].[Cl-].[Mg+2] [MgCl2]
PTP Activity (% of control) PTPβ (PTPβ; agent 1 mM): 90 % of control | PTP Activity (% of control) PTPβ (PTPβ; agent 10 mM): 141 % of control | PTP Activity (% of control) LAR (LAR; agent 1 mM): 119 % of control | PTP Activity (% of control) LAR (LAR; agent 10 mM): 56 % of control

PTP Activity (% of control) S31D [1, 3]: 110 % of control | PTP Activity (% of control) S31D [1, 4]: 140 % of control
Compound: [Cl][Mn][Cl] [MnCl2]
PTP Activity (% of control) PTPβ (PTPβ; agent 1 mM): 85 % of control | PTP Activity (% of control) PTPβ (PTPβ; agent 10 mM): 64 % of control | PTP Activity (% of control) LAR (LAR; agent 1 mM): 72 % of control | PTP Activity (% of control) LAR (LAR; agent 10 mM): 30 % of control

PTP Activity (% of control) S31D [1, 5]: 64 % of control | PTP Activity (% of control) S31D [1, 3]: 23 % of control
Compound: [O]=[V]([O-])([O-])[O-] [Orthovanadate, orthovanadate]
PTP Activity (% of control) PTPβ (PTPβ; agent 0.1 mM): 33 % of control | PTP Activity (% of control) PTPβ (PTPβ; agent 1 mM): 6 % of control | PTP Activity (% of control) LAR (LAR; agent 0.1 mM): 59 % of control | PTP Activity (% of control) LAR (LAR; agent 1 mM): 25 % of control

PTP Activity (% of control) S31D [1, 5]: 68 % of control | PTP Activity (% of control) S31D [1, 3]: 13 % of control | PTP Activity (% of control) S31D [1, 4]: 9 % of control
Compound: [Cl-].[Cl-].[Zn+2] [ZnCl2]
PTP Activity (% of control) PTPβ (PTPβ; agent 0.1 mM): 18 % of control | PTP Activity (% of control) PTPβ (PTPβ; agent 1 mM): 3 % of control | PTP Activity (% of control) PTPβ (PTPβ; agent 10 mM): 0 % of control | PTP Activity (% of control) LAR (LAR; agent 0.1 mM): 90 % of control | PTP Activity (% of control) LAR (LAR; agent 1 mM): 120 % of control | PTP Activity (% of control) LAR (LAR; agent 10 mM): 6 % of control

Compound: pervanadate
insulin response of whole cells [2]: almost full insulin response

PTP Activity (% of control) S31D [1, 6]: 84 % of control | PTP Activity (% of control) S31D [1, 7]: 85 % of control | PTP Activity (% of control) S31D [1, 8]: 77 % of control
Compound: poly(Glu/Tyr) 4:1 [Poly (Glu/Tyr)]
PTP Activity (% of control) PTPβ (PTPβ; agent 1 μg/ml): 97 % of control | PTP Activity (% of control) PTPβ (PTPβ; agent 10 μg/ml): 85 % of control | PTP Activity (% of control) PTPβ (PTPβ; agent 100 μg/ml): 61 % of control | PTP Activity (% of control) LAR (LAR; agent 1 μg/ml): 103 % of control | PTP Activity (% of control) LAR (LAR; agent 10 μg/ml): 97 % of control | PTP Activity (% of control) LAR (LAR; agent 100 μg/ml): 96 % of control

Compound: poly-L-lysine
PTP Activity (% of control) S31D [1, 6]: 156 % of control | PTP Activity (% of control) S31D [1, 7]: 172 % of control | PTP Activity (% of control) S31D [1, 8]: 192 % of control | PTP Activity (% of control) PTPβ (PTPβ; agent 1 μg/ml): 239 % of control | PTP Activity (% of control) PTPβ (PTPβ; agent 10 μg/ml): 653 % of control | PTP Activity (% of control) PTPβ (PTPβ; agent 100 μg/ml): 125 % of control | PTP Activity (% of control) LAR (LAR; agent 1 μg/ml): 123 % of control | PTP Activity (% of control) LAR (LAR; agent 10 μg/ml): 230 % of control | PTP Activity (% of control) LAR (LAR; agent 100 μg/ml): 247 % of control

Reference: patent US6492495B1, “PTP-S31: a novel protein tyrosine phosphatase” (Max-Planck-Gesellschaft zur Forderung der Wissenschaften …, priority 1993, dated 2002)
